According to PubChem BioAssay AID248 (DTP/NCI, 2004):
Values joined by “and” are separate entries in the source; they are usually repeats but may differ in a detail not shown here. Equal entries are not always repeated. Inconclusive results and toxic doses are left out. No stated cut-off is given here; in the data, active means T/C of 150% or more; inactive means T/C below 125%.

Test system: L1210 leukemia ip in BDF1 mice, survival T/C
Assay: NCI In Vivo Anticancer Drug Screen. Data for tumor model L1210 Leukemia (intraperitoneal) in B6D2F1 (BDF1) mice
Conditions: endpoint: mean survival time, higher = longer survival
Procedure, shortened: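 Read-out is survival time, reported as the treated-group measurement over the vehicle-control measurement.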

[1] = dose: 50.0 mg/kg/injection, schedule: Q01DX001 (ip), vehicle: saline
[2] = dose: 100.0 mg/kg/injection, schedule: Q01DX001 (ip), vehicle: saline
[3] = dose: 50.0 mg/kg/injection, schedule: Q01DX009 (ip), vehicle: saline

Measured: T/C

CCCCC(CC)COC(C)=O (stereo not drawn)
inactive: dose: 100.0 mg/kg/injection, schedule: Q01DX009 (ip), vehicle: saline with Tween-80 94 % of control | dose: 100.0 mg/kg/injection, schedule: Q04DX003 (ip), vehicle: saline with Tween-80 98 % of control | dose: 200.0 mg/kg/injection, schedule: Q01DX009 (ip), vehicle: saline with Tween-80 102 % of control | dose: 200.0 mg/kg/injection, schedule: Q04DX003 (ip), vehicle: saline with Tween-80 93 % of control | dose: 400.0 mg/kg/injection, schedule: Q01DX009 (ip), vehicle: saline with Tween-80 91 % of control | dose: 400.0 mg/kg/injection, schedule: Q04DX003 (ip), vehicle: saline with Tween-80 92 % of control

CC(C)=CC1C(C(=O)OC2CCN(C)CC2)C1(C)C (stereo not drawn)
inactive: dose: 25.0 mg/kg/injection, schedule: Q01DX001 (ip), vehicle: saline 98 % of control | [1] 98 % of control | [2] 101 % of control and 107 % of control

CCOC(=O)C1(C)CCCC1=O (stereo not drawn)
inactive: dose: 100.0 mg/kg/injection, schedule: Q01DX009 (ip), vehicle: saline sonified 94 % of control | dose: 200.0 mg/kg/injection, schedule: Q01DX009 (ip), vehicle: saline sonified 97 % of control | dose: 400.0 mg/kg/injection, schedule: Q01DX009 (ip), vehicle: saline sonified 95 % of control

CCN(CC)CCCNC(c1ccc(Cl)cc1)C(Cl)(Cl)Cl (stereo not drawn)
inactive: dose: 75.0 mg/kg/injection, schedule: Q01DX001 (ip), vehicle: saline 88 % of control

CC1C(C)(C)C12C=CC=C2 (stereo not drawn)
inactive: [2] 102 % of control | dose: 200.0 mg/kg/injection, schedule: Q01DX001 (ip), vehicle: saline 96 % of control | dose: 400.0 mg/kg/injection, schedule: Q01DX001 (ip), vehicle: saline 96 % of control

COc1ccc(C(CC(=O)c2ccc(C)cc2)Sc2ccccc2N)cc1 (stereo not drawn)
inactive: dose: 100.0 mg/kg/injection, schedule: Q01DX005 (ip), vehicle: Klucel (hydroxypropylcellulose) (HPC) 108 % of control | dose: 100.0 mg/kg/injection, schedule: Q01DX009 (ip), vehicle: Klucel (hydroxypropylcellulose) (HPC) 94 % of control | dose: 100.0 mg/kg/injection, schedule: Q04DX002 (ip), vehicle: Klucel (hydroxypropylcellulose) (HPC) 98 % of control | dose: 200.0 mg/kg/injection, schedule: Q01DX005 (ip), vehicle: Klucel (hydroxypropylcellulose) (HPC) 89 % of control | dose: 200.0 mg/kg/injection, schedule: Q01DX009 (ip), vehicle: Klucel (hydroxypropylcellulose) (HPC) 97 % of control | dose: 200.0 mg/kg/injection, schedule: Q04DX002 (ip), vehicle: Klucel (hydroxypropylcellulose) (HPC) 103 % of control | dose: 400.0 mg/kg/injection, schedule: Q01DX005 (ip), vehicle: Klucel (hydroxypropylcellulose) (HPC) 86 % of control | dose: 400.0 mg/kg/injection, schedule: Q01DX009 (ip), vehicle: Klucel (hydroxypropylcellulose) (HPC) 94 % of control | dose: 400.0 mg/kg/injection, schedule: Q04DX002 (ip), vehicle: Klucel (hydroxypropylcellulose) (HPC) 103 % of control

CCN(CC)C(=O)C(N)Cc1ccc(OC)c(N(CCCl)CCCl)c1 (stereo not drawn)
inactive: dose: 6.0 mg/kg/injection, schedule: Q01DX009 (ip), vehicle: saline 103 % of control | dose: 10.0 mg/kg/injection, schedule: Q01DX009 (ip), vehicle: saline 103 % of control | dose: 14.0 mg/kg/injection, schedule: Q01DX009 (ip), vehicle: saline 112 % of control | dose: 22.0 mg/kg/injection, schedule: Q01DX009 (ip), vehicle: saline 105 % of control | dose: 33.0 mg/kg/injection, schedule: Q01DX001 (ip), vehicle: saline 123 % of control | dose: 33.0 mg/kg/injection, schedule: Q01DX009 (ip), vehicle: saline 108 % of control | [1] 123 % of control | dose: 50.0 mg/kg/injection, schedule: Q01DX009 (ip), vehicle: carboxymethylcellulose (CMC) 104 % of control | [3] 116 % of control | dose: 75.0 mg/kg/injection, schedule: Q01DX009 (ip), vehicle: carboxymethylcellulose (CMC) 103 % of control | dose: 112.0 mg/kg/injection, schedule: Q01DX001 (ip), vehicle: saline 113 % of control | dose: 112.5 mg/kg/injection, schedule: Q01DX001 (ip), vehicle: carboxymethylcellulose (CMC) 116 % of control | dose: 150.0 mg/kg/injection, schedule: Q01DX001 (ip), vehicle: carboxymethylcellulose (CMC) 117 % of control

COC(=O)CC[S+](C)CCC(=O)OC
inactive: dose: 7.5 mg/kg/injection, schedule: Q04DX003 (ip), vehicle: saline 100 % of control | dose: 15.0 mg/kg/injection, schedule: Q04DX003 (ip), vehicle: saline 107 % of control | dose: 30.0 mg/kg/injection, schedule: Q04DX003 (ip), vehicle: saline 105 % of control

CC(C)(C)C1=C[P+](c2ccccc2)(c2ccccc2)C(C(C)(C)C)=C[P+]1(c1ccccc1)c1ccccc1
inactive: dose: 12.5 mg/kg/injection, schedule: Q01DX009 (ip), vehicle: saline 94 % of control | dose: 12.5 mg/kg/injection, schedule: Q04DX003 (ip), vehicle: saline 96 % of control | dose: 25.0 mg/kg/injection, schedule: Q01DX009 (ip), vehicle: saline 104 % of control | dose: 25.0 mg/kg/injection, schedule: Q04DX003 (ip), vehicle: saline 122 % of control | [3] 100 % of control | dose: 50.0 mg/kg/injection, schedule: Q04DX003 (ip), vehicle: saline 108 % of control

O=CC(CO)CC(C=O)n1cnc2c(=O)[nH]cnc21 (stereo not drawn)
inactive: [2] 114 % of control
